According to US20240018153A1, “BENZENESULFONAMIDE DERIVATIVES AND USES THEREOF” (2692372 ONTARIO, INC., priority 2020, published 2024):

Tests used:
Format in all cases: cell-based
[1] = molecular target: T1, BTK (Homo sapiens (Human), UniProt Q06187); test: Ramos RA1 cell lysis and immunoassay, phospho-BTK (Y223) inhibition; set-up: key: X: BTK bound and autophosphoration of BTK inhibited in cells; details: RAMOS cells, compound concentration 1 μM
How it was run: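 Ramos RA1 cells treated with compound or DMSO for 24 h at 37° C., lysed in RIPA, analysed by Simple Western. Total BTK normalised to β-actin, pBTK (Y223) to total-protein reagent; both expressed relative to DMSO control.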

[2] = molecular target: EGFR (Homo sapiens (Human), UniProt P00533); test: A549 cell lysis and immunoassay, phospho-EGFR (Y1068) inhibition; set-up: key: X: EGFR bound and autophosphoration of EGFR inhibited in cells; details: A549 cells; for pEGFR inhibition (A549, compound concentration, 24 h): compound concentration 10 μM
Chain of EGFR (P00533 25-1210): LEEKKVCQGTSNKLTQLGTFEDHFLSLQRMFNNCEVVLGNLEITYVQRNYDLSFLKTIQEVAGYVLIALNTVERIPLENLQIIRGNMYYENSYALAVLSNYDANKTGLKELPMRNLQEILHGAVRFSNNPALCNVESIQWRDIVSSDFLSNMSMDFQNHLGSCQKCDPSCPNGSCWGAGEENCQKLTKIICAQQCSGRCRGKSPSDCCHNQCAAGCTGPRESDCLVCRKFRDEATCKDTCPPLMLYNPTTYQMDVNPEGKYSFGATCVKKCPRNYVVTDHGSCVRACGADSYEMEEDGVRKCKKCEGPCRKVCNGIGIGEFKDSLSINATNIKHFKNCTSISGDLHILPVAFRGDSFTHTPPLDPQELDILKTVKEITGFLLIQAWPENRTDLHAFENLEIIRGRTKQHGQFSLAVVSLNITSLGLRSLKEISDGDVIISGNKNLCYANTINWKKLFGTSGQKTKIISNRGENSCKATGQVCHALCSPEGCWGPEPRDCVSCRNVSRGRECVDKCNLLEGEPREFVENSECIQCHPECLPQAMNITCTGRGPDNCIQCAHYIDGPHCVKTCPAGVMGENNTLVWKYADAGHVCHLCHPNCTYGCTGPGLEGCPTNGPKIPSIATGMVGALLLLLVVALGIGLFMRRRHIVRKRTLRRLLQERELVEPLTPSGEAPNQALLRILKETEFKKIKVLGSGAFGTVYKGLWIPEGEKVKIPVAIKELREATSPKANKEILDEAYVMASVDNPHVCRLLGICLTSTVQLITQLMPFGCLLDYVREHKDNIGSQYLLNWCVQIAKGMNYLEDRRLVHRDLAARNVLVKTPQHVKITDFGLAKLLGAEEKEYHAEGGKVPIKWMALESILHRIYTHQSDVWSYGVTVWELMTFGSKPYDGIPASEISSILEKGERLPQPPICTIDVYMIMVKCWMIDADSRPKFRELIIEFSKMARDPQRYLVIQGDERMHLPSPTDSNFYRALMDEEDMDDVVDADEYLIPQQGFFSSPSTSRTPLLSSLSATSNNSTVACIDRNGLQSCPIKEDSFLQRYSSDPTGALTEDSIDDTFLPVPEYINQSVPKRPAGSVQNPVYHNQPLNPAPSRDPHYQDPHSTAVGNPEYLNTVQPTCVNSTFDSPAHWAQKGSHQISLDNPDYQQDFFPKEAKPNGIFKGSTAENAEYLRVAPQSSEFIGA
Method: A549 cells (ATCC) were cultured in Dulbecco's Modified Eagle's Medium (DMEM) (Wisent) supplemented with 10% FBS and 1% penicillin/streptomycin. Cells were seeded in 6-well plates at 530,000 cells/well and incubated at 37° C., 5% CO2 for 16 hours. Cells were starved in DMEM containing 1% FBS for 4 hours before they were treated with the indicated concentrations of compound or DMSO alone and incubated at 37° C., 5% CO2 for 24 hours. Prior to cell harvest and lysis, 50 ng/ml human epidermal growth factor (hEGF) (Sigma) was added to the cells and incubated at 37° C., 5% CO2 for 10 minutes. Conditioned media was discarded, and adherent cells were washed with PBS before they were scraped on ice. Cell suspensions were centrifugated at 2,000 RPM for 5 minutes at 4° C. and supernatants were discarded. Cell pellets were resuspended with 1× RIPA buffer (Millipore) and incubated on ice for 15 minutes. Protein lysates were extracted by centrifugating at 20,000 RPM for 20 minutes at 4° C. Proteins were separated and total EGFR protein levels were quantified by Simple Western Immunoassay (ProteinSimple) using the Protein Normalization Assay Module for Jess according to the manufacturer's protocol, using a protein concentration of 0.125 μg/μl and an antibody targeting EGFR (clone #EP38Y, Abcam) diluted to 1:400. Phosphorylated EGFR protein levels were quantified with the same assay using a protein concentration of 1 μg/μl and an antibody targeting pEGFR (Y1068) (Cell Signalling) diluted to 1:25. EGFR and phosphorylated EGFR levels were normalized to the Jess Protein Normalization Reagent loading control and subsequently to the DMSO control.

[3] = molecular target: T1, BTK; test: Ramos RA1 cell lysis and immunoassay, total BTK degradation; set-up: key to % BTK degradation (RAMOS, 24 h): Y: BTK bound in cells and BTK degradation occurred; concentration or dose not given beside the values; key to % BTK degradation (RAMOS, 10 uM, 24 h): Y: EGFR bound in cells and EGFR degradation occurred; details: RAMOS cells
Method: Ramos RA 1 cells (ATCC) were cultured in RPMI-1640 media (Wisent) supplemented with 10% heat-inactivated FBS and 1% penicillin/streptomycin. Cells were seeded in 6-well plates at 1.71×10^6 cells/well and incubated at 37° C., 5% CO2 for 16 hours. Cells were treated with compound at the indicated concentrations or DMSO alone and incubated at 37° C., 5% CO2 for 24 hours. Cell suspensions were centrifugated at 1,400-1,600 RPM for 5 minutes at room temperature and supernatants were discarded. Cell pellets were resuspended with 1× RIPA buffer (Millipore) and incubated on ice for 15 minutes. Protein lysates were extracted by centrifugating at 20,000 RPM for 20 minutes at 4° C. Proteins were separated and total BTK protein levels were quantified by Simple Western Immunoassay (ProteinSimple) using the 12-230 kDa Jess Separation Module according to the manufacturer's protocol, using a protein concentration of 0.25 μg/μl and antibodies targeting BTK (clone #D3H5, Cell Signalling) and β-Actin (clone #AC-15, Santa Cruz) diluted to 1:400 and 1:10, respectively, where the latter was used as a loading control. An equal ratio of rabbit and mouse HRP-conjugated secondary antibodies was used for detection. BTK protein levels were quantified relative to S-Actin loading levels and subsequently normalized to the DMSO control. Phosphorylated BTK levels were quantified using the Protein Normalization Assay Module for Jess (ProteinSimple) according to the manufacturer's protocol, using a protein concentration of 1.5 μg/μl and an antibody targeting pBTK (Y223) (Cell Signalling) diluted to 1:50. Phosphorylated BTK levels were quantified relative to the Protein Normalization Reagent and subsequently normalized to the DMSO control.

T1 sequence (Q06187 whole entry): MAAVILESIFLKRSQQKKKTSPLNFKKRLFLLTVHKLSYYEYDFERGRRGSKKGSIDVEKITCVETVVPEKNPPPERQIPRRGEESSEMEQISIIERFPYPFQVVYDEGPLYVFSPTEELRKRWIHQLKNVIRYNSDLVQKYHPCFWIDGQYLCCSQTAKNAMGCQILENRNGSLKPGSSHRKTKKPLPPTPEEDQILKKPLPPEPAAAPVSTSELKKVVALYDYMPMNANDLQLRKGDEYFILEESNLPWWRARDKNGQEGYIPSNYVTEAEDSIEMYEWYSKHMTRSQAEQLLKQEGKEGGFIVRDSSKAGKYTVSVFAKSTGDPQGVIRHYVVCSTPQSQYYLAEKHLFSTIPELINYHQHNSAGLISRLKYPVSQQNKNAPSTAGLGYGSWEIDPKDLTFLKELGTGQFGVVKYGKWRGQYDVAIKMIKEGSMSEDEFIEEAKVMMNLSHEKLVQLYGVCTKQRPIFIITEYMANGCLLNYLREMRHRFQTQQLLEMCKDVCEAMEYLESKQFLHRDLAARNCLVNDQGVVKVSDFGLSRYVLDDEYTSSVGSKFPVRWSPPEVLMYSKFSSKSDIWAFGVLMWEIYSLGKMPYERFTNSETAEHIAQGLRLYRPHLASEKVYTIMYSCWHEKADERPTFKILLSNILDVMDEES

| pBTK inhibition (RAMOS, 24 h) [1] | pEGFR inhibition (A549, 1 μM, 24 h) [2] | pEGFR inhibition (A549, compound concentration, 24 h) [2] | % BTK degradation (RAMOS, 24 h) [3] | % BTK degradation (RAMOS, 10 uM, 24 h) [3] | SMILES |
| --- | --- | --- | --- | --- | --- |
| X | X | X | Y | – | COCCOc1ccc(Nc2ncc(F)c(Nc3cccc(NC(=O)c4c(F)c(F)c(F)c(F)c4S(=O)(=O)N(C)C)c3)n2)cc1 [Compound I-59, 2-(N,N-dimethylsulfamoyl)-3,4,5,6-tetrafluoro-N-(3-((5-fluoro-2-((4-(2-methoxyethoxy)phenyl)amino)pyrimidin-4-yl)amino)phenyl)benzamide] |
| X | X | X | Y | – | CS(=O)(=O)c1c(F)c(F)c(F)c(F)c1C(=O)Nc1cc2c(Nc3ccc(F)c(Cl)c3)ncnc2cc1O[C@H]1CCOC1 [Compound I-5, (S)—N-(4-((3-chloro-4-fluorophenyl)amino)-7-((tetrahydrofuran-3-yl)oxy)quinazolin-6-yl)-2,3,4,5-tetrafluoro-6-(methylsulfonyl)benzamide] |
| X | X | X | Y | Y | COCCOc1ccc(Nc2ncc(F)c(Nc3cccc(Nc4c(F)c(F)c(F)c(F)c4[S@+](C)[O-])c3)n2)cc1 (stereo in doubt) [Compound I-63, 5-fluoro-N^2-(4-(2-methoxyethoxy)phenyl)-N^4-(3-((2,3,4,5-tetrafluoro-6-(methylsulfinyl)phenyl)amino)phenyl)pyrimidine-2,4-diamine] |
| X | – | – | – | – | Nc1ncnc2c1c(-c1ccc(Oc3ccccc3)cc1)nn2[C@@H]1CCN(S(=O)(=O)c2c(F)c(F)c(F)c(F)c2OCF)C1 [Compound I-24, (R)-3-(4-phenoxyphenyl)-1-(1-((2,3,4,5-tetrafluoro-6-(fluoromethoxy)phenyl)sulfonyl)pyrrolidin-3-yl)-1H-pyrazolo[3,4-d]pyrimidin-4-amine] |
| – | X | X | Y | – | CS(=O)(=O)c1c(F)c(F)c(F)c(F)c1Nc1cc2c(Nc3ccc(F)c(Cl)c3)ncnc2cc1O[C@H]1CCOC1 [Compound I-2, (S)—N^4-(3-chloro-4-fluorophenyl)-N^6-(2,3,4,5-tetrafluoro-6-(methylsulfonyl)phenyl)-7-((tetrahydrofuran-3-yl)oxy)quinazoline-4,6-diamine] |
| – | X | X | Y | Y | C[S+]([O-])c1c(F)c(F)c(F)c(F)c1Nc1cc2c(Nc3ccc(F)c(Cl)c3)ncnc2cc1O[C@H]1CCOC1 (stereo partly drawn) [Compound I-4, N^4-(3-chloro-4-fluorophenyl)-N^6-(2,3,4,5-tetrafluoro-6-(methylsulfinyl)phenyl)-7-(((S)-tetrahydrofuran-3-yl)oxy)quinazoline-4,6-diamine] |
| – | X | X | Y | – | NS(=O)(=O)c1c(F)c(F)c(F)c(F)c1C(=O)NCCNc1ncnc2[nH]ccc12 [Compound I-48] |
| – | X | – | Y | – | CN(C)S(=O)(=O)c1c(F)c(F)c(F)c(F)c1C(=O)NCCNc1ncnc2[nH]ccc12 [Compound I-47, N-(2-((7H-pyrrolo[2,3-d]pyrimidin-4-yl)amino)ethyl)-2-(N,N-dimethylsulfamoyl)-3,4,5,6-tetrafluorobenzamide] |
| X | X | – | – | – | COCCOc1ccc(Nc2ncc(F)c(Nc3cccc(NC(=O)c4c(F)c(F)c(F)c(F)c4S(C)(=O)=O)c3)n2)cc1 [Compound I-61, 2,3,4,5-tetrafluoro-N-(3-((5-fluoro-2-((4-(2-methoxyethoxy)phenyl)amino)pyrimidin-4-yl)amino)phenyl)-6-(methylsulfonyl)benzamide] |
